According to patent publication US9365851B2, “Spalt-like transcription factor 4 (SALL4) and uses thereof” (National University of Singapore, priority 2011, dated 2016):

How the values were obtained:
[1] = system: SALL4 interaction with HDAC1; experiment: Co-immunoprecipitation of endogenous SALL4 with HDAC1 after peptide treatment (SNU-398); format: binding, human; details: SNU-398, anti-SALL4 IP
Excerpt: FIGS. 9A-9E: The wild type peptide blocks SALL4 repression of PTEN. (9A) Flow cytometry analysis on SNU-398 cells treated with Pep-1 carrier peptide alone (top panel), wild type peptide alone (middle panel), or Pep-1 carrier+peptide (lower panel). […] (9B) Confocal images of the distribution of FITC-labeled peptide in SNU-398 cells treated as shown in (9A). (9C) The endogenous SALL4 interaction with HDAC is blocked by wild type (wt) but not scrambled (scr) peptide. SALL4 was immunoprecipitated from SNU-398 nuclear extracts (1×10^6 cells) pre-treated with wild type or scrambled peptides as indicated using an anti-SALL4 antibody. Immunoprecipitates were analyzed by Western blot using HDAC1 (top panel) or SALL4 (lower panel) antibodies. […] Equal amount of SALL4 protein was present in all samples. In Lane 4 (“10% input”), 10% of the amount of nuclear extract used in lanes 1-3 was subjected to Western blot analysis without immunoprecipitation. […] Enrichment with control IgG was set at 1.
Furthermore, whether wt peptide can compete with endogenous SALL4 in interacting with HDAC1 was tested. SNU-398 cells were treated with wt or Scr peptides. […] This effect was not observed with the SNU-398 cells treated with Scr peptide and HDAC1 was still present in the endogenous SALL4 pull-down (FIG. 2).
Next tested was whether wild type peptide could compete for the interaction of endogenous SALL4 with HDAC1. SNU-398 cells were treated with wild type or scrambled peptides along with the peptide carrier Pep-1.

THP1 cells = experiment: MTS cell viability assay; format: cell-based; details: THP1, 72 h
Experimental: (§1) Multiple leukemic and solid tumor cancer cell lines with high or low/no SALL4 expression (FIG. 10A) were chosen to test the biological effect(s) of the wild type peptide. Wild type or scrambled peptide was delivered into tumor cells at various concentrations, and their effects on cells were evaluated 72 hours post-treatment by the MTS cell viability assay. […] The effect of wild type peptide is SALL4-specific, as it had no effect on KBM5, an AML cell line with undetectable endogenous SALL4 expression. We were surprised to see that the wild type peptide had no effect on a high SALL4-expressing endometrioid cancer cell line, AN3CA. This prompted checking whether PTEN, a gene repressed by SALL4 through its interaction with NuRD 27, was present in this cell line. According to the model herein, the function of wild type peptide requires both the expression of SALL4 and intact SALL4 downstream target genes, such as PTEN. In tumor cells with PTEN deletion, even though wild type peptide could compete with endogenous SALL4 in interacting with the HDAC complex, an anti-proliferative effect might not be observed. Therefore, expression of PTEN was evaluated in AN3CA cells along with other cell lines. While PTEN protein was present in all the other cell lines, it was absent in AN3CA cells (FIG. 10C), with reported deletion mutation of the gene in this cell line 40,41. […] Furthermore, the anti-proliferative effect also required certain downstream targets, such as PTEN.
(§2) To further test whether the effect of wild type peptide on tumor cells is related to PTEN, a PTEN inhibitor (SF1670) was used (Li et al., Blood, 117:6702-6713). […] As a control for the specificity of SALL4, KBM5, a non-SALL4-expressing cell line was also treated with PTEN inhibitor.

KBM5 cells = experiment: MTS cell viability assay; format: cell-based; details: KBM5 (no SALL4), 72 h
Experimental: as §1, §2

SALL4 = SALL4 knock-down in HCC cells (qPCR, Western blot); format: cell-based, human
Experimental: Lentiviruses expressing scrambled shRNA or E5 SALL4-specific shRNA were packaged by treansfection of 293T cells with lentiviral vector pLL3.7. 24 hours and 48 hours post-transfection, viruses were harvested and filtered through […]. Virus titers were determined by FACS analysis of GFP expression using infected 3T3 cells by the conventional ways. MOI 0.5 to 5 was used dependent on individual cell lines. Transduction of HCC cells were carried out using spinoculation protocol, virus was added to the trypsinized cells and let settle for an hour at 37° C. in a humidified atmostphere of 5% CO2, centrifuged at 2,200 RPM at 37° C. for 90 mins and incubated overnight at 37° C. in a humidified atmostphere of 5% CO2. Transduction efficiency was determined by GFP expression by FACS analysis.
After successfully establishing the expression pattern of SALL4 in human livers at various stages and the clinical significance of SALL4 in HCC, the functional roles of SALL4 in HCC was investigated. […] The efficiency of virus transduction was assessed by FACS analysis of GFP expression. […]
Next, the potential of SALL4 as a molecular target for therapeutic intervention in HCC was examined by performing loss-of-function studies. […] The efficiency of virus transduction was assessed by the percentage of cells expressing GFP by flow cytometry. […]

Substance | interaction of endogenous SALL4 with HDAC1 [1] | interaction of endogenous SALL4 with HDAC1 ([1]; listed as scrambled peptide) | cell viability (THP1 cells) | cell viability (KBM5 cells) | SALL4 isoforms mRNA level after knockdown (SALL4; SNU-398, four days post-transduction) | SALL4 protein level after knockdown (SALL4; Western blot) | cell viability (KBM5 cells; listed as wild type) | cell viability (KBM5 cells; listed as wild type peptide)
Scr peptide: same 12 amino acids as the wt peptide, but in a scrambled sequence; negative control (SRMRQKIHPKIQ) [reference compound] | not observed | does not affect the interaction | remained unaffected | no change in cell viability | – | – | – | –
CTATTTAGCCAAAGGCAAA (short hairpin RNA, chemistry and delivery not given here, further chemistry not given here) [E5 shRNA] | – | – | – | – | 70% | almost all SALL4 proteins were gone | – | –
H-MSRRKQAKPQHI-OH [wt peptide, MSRRKQAKPQHI] | completely abrogated | – | decreased cell viability | – | – | – | no change in cell viability | had no effect
